“Also recorded” adds a separate entry of the source.
Legend:
[1] = system: oligodendrocyte progenitors; assay: BrdU incorporation, proliferation of oligodendrocyte progenitors; type: cell-based, mouse; conditions: 10 nM, 48 h; Average±SEM; control 26.3±3.2; not statistically significant
Experimental: A feasible effect of small molecules on oligodendrocyte progenitor cells is the induction of proliferation. We studied this possibility by treating cultures of oligodendrocyte progenitors, previously exposed to compounds A, A-7 and B (10 nM, 48 h) with BrdU (Bromodeoxyuridine, 10 μM added 24 hrs before the end of the treatment) and posterior immunostaining to detect BrdU positive cells. This is a well established method to determine cell division and proliferation by incorporation of the […]. After counting BrdU positive oligodendrocytes versus total cells in three independent experiments we observed a slight tendency of increased proliferation in cells treated with compounds A, A-7 or B. However, there were not statistically significant differences between treated and control cells (control: 26.3±3.2; compound A: 29.2±4.0; compound A-7: 28,9±2.1; compound B: 27.6±6.7; Values are represented as Average±SEM).

[2] = system: tg[Plp:EGFP] zebrafish embryos; assay: Oligodendrocyte development in tg[Plp:EGFP] zebrafish embryos; type: in vivo; conditions: 1, 10 and 100 nM from 24 hpf, analysed at 72 hpf
Experimental: Transgenic-Proteolipid protein-enhanced green fluorescence protein (tg[plp:EGFP]) zebrafish was raised and maintained (Yoshida and Macklin, J. Neurosci Res, 81:1, 2005). Embryos were collected and staged by hour post fertilization (hpf). Compounds were added at 24 hpf stage at a concentration of 10 nM, 100 nM and 1 μM. After 48 hrs (72 hpf stage), zebrafish embryos were anesthetized in 0.02% tricaine, fixed in 4% paraformaldehyde, and washed in phosphate buffered saline (PBS). After treating with 10% Triton X-100 for 30 minutes, embryos were washed in PBS and blocked with 3% goat serum. Embryos were then incubated at 4° C. overnight with FITC-conjugated goat anti-GFP antibody (Abcam, Cambridge, Mass.) at a concentration of 1:1000. After several washes with PBS, the embryos were embedded in 100% glycerol and visualized on a Leica SP5 confocal microscope.
Embryos from transgenic-Plp-EGFP (tg[Plp:EGFP]) zebrafish were treated starting at 24 hours post fertilization (hpf) with compounds A, A-7 or B (1, 10 and 100 nM) or vehicle (DMSO). At 72 hpf effective treatments were analyzed by confocal microscopy after fixation and EGFP immunostaining of selected positive compounds.

Akt = Akt activity in cell extracts of oligodendrocyte precursors (phosphorylation of Akt substrate GSKα/β); type: cell-based; conditions: 10 μM, 48 h
Source text: Oligodendrocyte precursor differentiation requires the activation of a complex, highly controlled machinery that signals cells to stop migrating/proliferating and start extending processes and producing myelin components. A number of inducers and intracellular mediators of this process have been identified in vitro and in viva. […] Therefore, we studied whether our selected small molecules induced Akt signaling in oligodendrocyte precursors. We analyzed Akt activity in cell extracts of oligodendrocyte precursors treated with selected compounds (10 μM, 48 h), as determined by phosphorylation of Akt substrate GSKα/β.

[3] = Detection of small molecules in blood plasma and brain tissue by mass spectrometry; conditions: for blood plasma level, average / brain level, average: 4 mice; for blood plasma level, average / brain level, average / Biological sample concentration (nM), Brain / Biological sample concentration (nM), Plasma: 100 mg/kg i.p., two doses in 5 days; for crossing of the blood brain barrier: two I.P. doses in a five day-term
Experimental: The signal was optimized for each compound for positive or negative ionization by ESI (Electrospray ionization). A standard curve what made with pure compound solutions in DMSO up to 10 ng/ml. A MS2 scan was used to identify the progenitor ion and a product ion analysis was used to identify the best fragment for analysis and to optimize the collision energy. […] Samples were precipitated in 3 volumes of methanol with internal standard, centrifuged, and filtered. Filtered samples were analyzed by LC/MS/MS using either an Agilent 6410 mass spectrometer coupled with an Agilent 1200 HPLC and a CTC PAL chilled autosampler, all controlled by MassHunter software (Agilent), or an AB12000 mass spectrometer coupled with an Agilent 1100 HPLC and a CTC PAL chilled autosampler, all controlled by Analyst software (ABI). After separation on a C18 reverse phase HPLC column (Agilent, Waters, or equivalent) using an acetonitrile-water gradient system, peaks were analyzed by mass spectrometry (MS) using ESI ionization in MRM (Multiple Reaction Monitoring) mode.
4 mice per condition were injected i.p. (100 mg/kg), following the same experimental paradigm performed for the tissue analysis (two doses m a 5 days time).

[4] = system: oligodendrocyte precursors; assay: Oligodendrocyte precursor maturation after pre-incubation with PI3K, mTOR or Akt inhibitors (MBP immunostaining); type: cell-based; conditions: 48 h treatment; for effect of Akt inhibitor on compound-induced differentiation: Akt 1/2 inhibitor 1 μM added 1 hr before; for effect of PI3K inhibition on compound-induced oligodendrocyte precursor maturation: wortmannin 0.1 μM added 1 hr before
Experimental: Akt signaling has been extensively studied, and activation of phosphatidyl-inositol-3-kinase (PI3K) is generally accepted as a canonical upstream Akt activator. Downstream targets of Akt have also been identified and those include GSK, mTOR, p70SK, ASK amongst many others. In order to determine the relevance of […], signaling in the phosphorylation of Akt induced by compounds A and B and possible downstream targets of phosphorylated Akt, we pre-incubated the cells with inhibitors of PI3K (wortmannin, 0.1 μM), mTOR (rapamycin 0.1 μM) or a direct Akt ½ inhibitor (trifluoroacetate salt hydrate, 1 μM), all added 1 hr before the treatment with compounds A or B.
Cells were immunostained for MBP and after 48 h treatment with compound A or B the cells underwent morphology changes indicative of cell differentiation that included the generation of multiple cell processes and development of membranous structures.

Hydrophobicity = type: physicochemical

Row | Biological sample concentration (nM), Plasma ([3]; Sample No. 3) [nM] | Compound | BrdU positive oligodendrocytes versus total cells [1] | number of oligodendrocyte progenitor cells and fluorescence intensity in embryos [2] | Akt phosphorylation (Akt) | blood plasma level, average [3] [nM] | brain level, average [3] [nM] | Biological sample concentration (nM), Brain ([3]; Sample No. 1) [nM] | Biological sample concentration (nM), Plasma ([3]; Sample No. 1) [nM] | Biological sample concentration (nM), Brain ([3]; Sample No. 2) [nM] | Biological sample concentration (nM), Plasma ([3]; Sample No. 2) | Biological sample concentration (nM), Brain ([3]; Sample No. 3) [nM] | Biological sample concentration (nM), Brain ([3]; Sample No. 4) [nM] | Biological sample concentration (nM), Plasma ([3]; Sample No. 4) [nM] | crossing of the blood brain barrier [3] | effect of Akt inhibitor on compound-induced differentiation [4] | effect of PI3K inhibition on compound-induced oligodendrocyte precursor maturation [4] | hydrophobicity (Hydrophobicity) | effect of mTOR inhibition on compound-induced oligodendrocyte precursor maturation ([4]; rapamycin 0.1 μM added 1 hr before)
1 | 129 | CCS(=O)(=O)N1CCN(C(=O)COc2ccc(-c3ccccc3)cc2)CC1 [Compound A, 1-[(4-biphenylyloxy)acetyl]-4-(ethylsulfonyl)piperazine] | 29.2±4.0 | clear increase; also recorded: increased accumulation of oligodendrocytes and enhanced differentiation | clearly detected | 131.3 | 9.2 | 4.6 | 90 | 14.7 | 149 nM | 13.2 | 4.3 | 157 | effectively crossed the blood brain barrier | completely blocked | did not block |  | 
2 |  | CC(C)N1CCN(C(=O)COc2ccc(-c3ccccc3)cc2)CC1 [Compound A-7, 1-(Biphenyl-4-yloxy)acetyl-4-isopropylpiperazine] |  | clear increase; also recorded: increased accumulation of oligodendrocytes and enhanced differentiation |  | 9.2 | 13.5 | 16.6 | 4.2 | 16.8 | 5.3 L nM | 4.21 | 6.2 | 3.6 | effectively crossed the blood brain barrier |  |  | high | 
3 |  | O=[N+]([O-])c1ccc(F)c(NS(=O)(=O)c2ccc(F)cc2)c1 [Compound B, 4-fluoro-N-(2-fluoro-5-nitrophenyl)benzenesulfonamide] | 27.6±6.7 |  | clearly detected |  |  |  |  |  |  |  |  |  |  | completely blocked | did not block |  | totally avoided
